Test results from ChEMBL document CHEMBL1201862, “PubChem BioAssay data set” (2004).
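Where inhibition never reached the appropriate level, the endpoint shown equals the highest concentration tested. Otherwise, values were interpolated linearly from a five-concentration, 48-hour dose response in 96-well plates. The concentration for 50% growth inhibition is given as GI50.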 Activity calls are given as the source filed them. Rule as the data show it: active = GI50 up to about 1.1 µM and inactive = higher.

Experiments:
Test in all cases: growth of human tumour cells (NCI), 48 h
[1] = test system: CCRF-CEM
[2] = test system: K562
[3] = test system: HCT-116
[4] = test system: UO-31
[5] = test system: 786-0
[6] = test system: SF-539
[7] = test system: SN12C
[8] = test system: KM12
[9] = test system: SK-MEL-5
[10] = test system: UACC-257
[11] = test system: SK-OV-3
[12] = test system: UACC-62
[13] = test system: HOP-18
[14] = test system: NCI-H522
[15] = test system: NCI-H460
[16] = test system: SW-620
[17] = test system: SF-295
[18] = test system: SF-268
[19] = test system: HOP-92
[20] = test system: M19-MEL
[21] = test system: IGROV-1
[22] = test system: DMS-273
[23] = test system: HCT-15
[24] = test system: SNB-78
[25] = test system: LOX IMVI
[26] = test system: ACHN
[27] = test system: TK-10
[28] = test system: LXFL 529
[29] = test system: EKVX
[30] = test system: MOLT-4
[31] = test system: SK-MEL-28
[32] = test system: Malme-3M
[33] = test system: OVCAR-5
[34] = test system: CAKI-1
[35] = test system: M14
[36] = test system: OVCAR-4
[37] = test system: U-251
[38] = test system: SNB-75
[39] = test system: COLO 205
[40] = test system: HT-29
[41] = test system: XF498
[42] = test system: OVCAR-3
[43] = test system: SK-MEL-2
[44] = test system: SNB-19
[45] = test system: OVCAR-8
[46] = test system: NCI-H23
[47] = test system: A498
[48] = test system: DLD-1
[49] = test system: HL-60
[50] = test system: HOP-62
[51] = test system: KM-20L2
[52] = test system: RPMI-8226
[53] = test system: DMS-114
[54] = test system: SR
[55] = test system: RXF 393
[56] = test system: NCI-H226
[57] = test system: A549
[58] = test system: HCC 2998

Question: `CC(C)N1CN(C(C(=O)N[C@@H]2C(=O)N3C2SC(C)(C)C3C(=O)O)c2ccc(O)cc2)CSC1=S` (stereo partly drawn) was tested. Which GI50 [1] did it give?
Answer: Its GI50 is 58.7 µM (inactive).

Question: And the GI50 [2]?
Answer: Its GI50 is 31.8 µM (inactive).

Question: And the GI50 [3]?
Answer: The GI50 was > 100 µM (inactive).

Question: What about the GI50 [4] of the same compound?
Answer: Its GI50 is > 100 µM (inactive).

Question: And the GI50 [5]?
Answer: Its GI50 is > 100 µM (inactive).

Question: What about the GI50 [6] of the same compound?
Answer: The GI50 was > 100 µM (inactive).

Question: What about the GI50 [7] of the same compound?
Answer: The GI50 was > 100 µM (inactive).

Question: What about the GI50 [8] of the same compound?
Answer: Its GI50 is > 100 µM (inactive).

Question: And the GI50 [9]?
Answer: The GI50 was > 100 µM (inactive).

Question: And the GI50 [10]?
Answer: Its GI50 is > 100 µM (inactive).

Question: And the GI50 [11]?
Answer: Its GI50 is > 100 µM (inactive).

Question: What about the GI50 [12] of the same compound?
Answer: The GI50 was > 100 µM (inactive).

Question: And the GI50 [13]?
Answer: Its GI50 is > 100 µM (inactive).

Question: And the GI50 [14]?
Answer: Its GI50 is 41 µM (inactive).

Question: And the GI50 [15]?
Answer: The GI50 was > 100 µM (inactive).

Question: And the GI50 [16]?
Answer: Its GI50 is 16.9 µM (inactive).

Question: And the GI50 [17]?
Answer: Its GI50 is > 100 µM (inactive).

Question: What about the GI50 [18] of the same compound?
Answer: Its GI50 is > 100 µM (inactive).

Question: What about the GI50 [19] of the same compound?
Answer: The GI50 was > 100 µM (inactive).

Question: And the GI50 [20]?
Answer: Its GI50 is > 100 µM (inactive).

Question: What about the GI50 [21] of the same compound?
Answer: Its GI50 is > 100 µM (inactive).

Question: What about the GI50 [22] of the same compound?
Answer: Its GI50 is > 100 µM (inactive).

Question: And the GI50 [23]?
Answer: Its GI50 is 43 µM.

Question: And the GI50 [24]?
Answer: Its GI50 is > 100 µM (inactive).

Question: And the GI50 [25]?
Answer: Its GI50 is > 100 µM (inactive).

Question: What about the GI50 [26] of the same compound?
Answer: The GI50 was > 100 µM (inactive).

Question: What about the GI50 [27] of the same compound?
Answer: The GI50 was > 100 µM (inactive).

Question: And the GI50 [28]?
Answer: The GI50 was > 100 µM (inactive).

Question: What about the GI50 [29] of the same compound?
Answer: Its GI50 is > 100 µM (inactive).

Question: What about the GI50 [30] of the same compound?
Answer: Its GI50 is > 100 µM (inactive).

Question: What about the GI50 [31] of the same compound?
Answer: The GI50 was > 100 µM (inactive).

Question: What about the GI50 [32] of the same compound?
Answer: Its GI50 is > 100 µM (inactive).

Question: And the GI50 [33]?
Answer: The GI50 was > 100 µM (inactive).

Question: And the GI50 [34]?
Answer: The GI50 was > 100 µM (inactive).

Question: And the GI50 [35]?
Answer: Its GI50 is > 100 µM (inactive).

Question: What about the GI50 [36] of the same compound?
Answer: The GI50 was > 100 µM (inactive).

Question: What about the GI50 [37] of the same compound?
Answer: The GI50 was > 100 µM (inactive).

Question: And the GI50 [38]?
Answer: Its GI50 is > 100 µM (inactive).

Question: And the GI50 [39]?
Answer: Its GI50 is 33.8 µM (inactive).

Question: And the GI50 [40]?
Answer: The GI50 was > 100 µM (inactive).

Question: What about the GI50 [41] of the same compound?
Answer: Its GI50 is > 100 µM (inactive).

Question: What about the GI50 [42] of the same compound?
Answer: Its GI50 is 41.1 µM (inactive).

Question: What about the GI50 [43] of the same compound?
Answer: The GI50 was > 100 µM (inactive).

Question: And the GI50 [44]?
Answer: The GI50 was > 100 µM (inactive).

Question: And the GI50 [45]?
Answer: Its GI50 is > 100 µM (inactive).

Question: What about the GI50 [46] of the same compound?
Answer: Its GI50 is > 100 µM (inactive).

Question: And the GI50 [47]?
Answer: The GI50 was > 100 µM (inactive).

Question: And the GI50 [48]?
Answer: The GI50 was > 100 µM (inactive).

Question: What about the GI50 [49] of the same compound?
Answer: Its GI50 is > 100 µM (inactive).

Question: And the GI50 [50]?
Answer: Its GI50 is > 100 µM (inactive).

Question: What about the GI50 [51] of the same compound?
Answer: The GI50 was > 100 µM (inactive).

Question: And the GI50 [52]?
Answer: The GI50 was 94.2 µM (inactive).

Question: What about the GI50 [53] of the same compound?
Answer: The GI50 was > 100 µM (inactive).

Question: For `O=C(/C=C/c1ccccc1)/C=C/c1ccccc1O`, which GI50 [1] is on record?
Answer: The GI50 was 17 µM (inactive).

Question: What about the GI50 [2] of the same compound?
Answer: The GI50 was 16.4 µM (inactive).

Question: What about the GI50 [54] of the same compound?
Answer: The GI50 was 26.6 µM (inactive).

Question: What about the GI50 [3] of the same compound?
Answer: The GI50 was 15.1 µM (inactive).

Question: And the GI50 [4]?
Answer: The GI50 was 16.4 µM (inactive).

Question: What about the GI50 [5] of the same compound?
Answer: The GI50 was 16.7 µM (inactive).

Question: What about the GI50 [6] of the same compound?
Answer: The GI50 was 22 µM (inactive).

Question: And the GI50 [55]?
Answer: The GI50 was 20.8 µM (inactive).

Question: What about the GI50 [7] of the same compound?
Answer: Its GI50 is 16.2 µM (inactive).

Question: What about the GI50 [8] of the same compound?
Answer: Its GI50 is 17.8 µM (inactive).

Question: And the GI50 [9]?
Answer: Its GI50 is 20.1 µM (inactive).

Question: And the GI50 [10]?
Answer: Its GI50 is 20.8 µM (inactive).

Question: What about the GI50 [11] of the same compound?
Answer: Its GI50 is 19.1 µM (inactive).

Question: What about the GI50 [12] of the same compound?
Answer: Its GI50 is 19 µM (inactive).

Question: What about the GI50 [13] of the same compound?
Answer: Its GI50 is 0.488 µM (active).

Question: And the GI50 [14]?
Answer: The GI50 was 15.5 µM (inactive).

Question: What about the GI50 [15] of the same compound?
Answer: Its GI50 is 19.1 µM (inactive).

Question: And the GI50 [16]?
Answer: Its GI50 is 11.6 µM (inactive).

Question: And the GI50 [17]?
Answer: Its GI50 is 24.4 µM (inactive).

Question: And the GI50 [18]?
Answer: The GI50 was 32.9 µM (inactive).

Question: What about the GI50 [56] of the same compound?
Answer: The GI50 was 22 µM (inactive).

Question: What about the GI50 [19] of the same compound?
Answer: Its GI50 is 83.8 µM (inactive).

Question: What about the GI50 [20] of the same compound?
Answer: The GI50 was 17.9 µM (inactive).

Question: And the GI50 [21]?
Answer: The GI50 was 18.7 µM (inactive).

Question: What about the GI50 [23] of the same compound?
Answer: The GI50 was 15.9 µM.

Question: What about the GI50 [24] of the same compound?
Answer: The GI50 was 37.3 µM (inactive).

Question: And the GI50 [25]?
Answer: The GI50 was 18.2 µM (inactive).

Question: And the GI50 [26]?
Answer: The GI50 was 19.4 µM (inactive).

Question: What about the GI50 [27] of the same compound?
Answer: Its GI50 is 30.1 µM (inactive).

Question: And the GI50 [28]?
Answer: Its GI50 is 16.8 µM (inactive).

Question: What about the GI50 [29] of the same compound?
Answer: The GI50 was 18.8 µM (inactive).

Question: And the GI50 [30]?
Answer: The GI50 was 19.8 µM (inactive).

Question: And the GI50 [31]?
Answer: Its GI50 is 34.6 µM (inactive).

Question: And the GI50 [32]?
Answer: Its GI50 is < 0.01 µM (active).

Question: And the GI50 [33]?
Answer: Its GI50 is 29.3 µM (inactive).

Question: What about the GI50 [57] of the same compound?
Answer: The GI50 was 23.9 µM (inactive).

Question: What about the GI50 [34] of the same compound?
Answer: The GI50 was 22 µM (inactive).

Question: What about the GI50 [35] of the same compound?
Answer: Its GI50 is 21 µM (inactive).

Question: And the GI50 [37]?
Answer: The GI50 was 17.6 µM (inactive).

Question: And the GI50 [39]?
Answer: Its GI50 is 17.3 µM (inactive).

Question: And the GI50 [40]?
Answer: The GI50 was 24.4 µM (inactive).

Question: And the GI50 [41]?
Answer: Its GI50 is 49.1 µM (inactive).

Question: And the GI50 [42]?
Answer: Its GI50 is 0.0401 µM (active).

Question: And the GI50 [43]?
Answer: Its GI50 is 59.3 µM (inactive).

Question: What about the GI50 [44] of the same compound?
Answer: The GI50 was 23.3 µM (inactive).

Question: And the GI50 [45]?
Answer: The GI50 was 17 µM (inactive).

Question: And the GI50 [46]?
Answer: The GI50 was 24.9 µM (inactive).

Question: What about the GI50 [47] of the same compound?
Answer: Its GI50 is 30.1 µM (inactive).

Question: What about the GI50 [48] of the same compound?
Answer: Its GI50 is 18 µM (inactive).

Question: And the GI50 [49]?
Answer: The GI50 was 12.9 µM (inactive).

Question: What about the GI50 [50] of the same compound?
Answer: The GI50 was 38.8 µM (inactive).

Question: What about the GI50 [58] of the same compound?
Answer: The GI50 was 12.5 µM (inactive).

Question: And the GI50 [51]?
Answer: The GI50 was 19.1 µM (inactive).

Question: What about the GI50 [52] of the same compound?
Answer: Its GI50 is 16.4 µM (inactive).

Question: What about the GI50 [53] of the same compound?
Answer: Its GI50 is 17.8 µM (inactive).
